Data set [1] relates to Mycobacterium smegmatis (ATCC607). In words: In-vitro anti-bacterial activity against strain M. Smegmatis ATCC607. It is filed as cell-based. The conditions noted are these: 90% inhibitory concentration for bacterial growth, Alamar Blue fluorescence; for IC90 MSM 607: 48 hours; for IC90: Mycolicibacterium smegmatis, ATCC607, 48 h, read-out: IC90 MSM 607. In a few lines:
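IC90 (μg/ml) derived from Alamar Blue fluorescence (530/590 nm) after 48 h growth at 37 °C under 5% CO2. About 250 CFU per well in Mueller-Hinton broth faced five-fold serial compound dilutions in BSA-containing wells.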
Background: The colour change of resazurin is a common sign of viable cells or microbes.

The test system of data set [2] is Staphylococcus aureus (ATCC29213). In words: In-vitro anti-bacterial activity, microtitre plate assay, IC90 determination (non-mycobacterial strains). Type of data set: cell-based. The conditions noted are these: 90% inhibitory concentration for bacterial growth, resazurin fluorescence; for IC90 STA B29213: 24 hours; for IC90: Staphylococcus aureus, ATCC29213, 24 h, read-out: IC90 STA B29213. In a few lines: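 Growth inhibition measured fluorometrically with resazurin (530/590 nm) after overnight 37 °C incubation under normal atmosphere. Bacteria added at roughly 100 TCID50 per well in Mueller-Hinton broth to five-fold compound dilution series; IC90 reported in μg/ml.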

These results are taken from patent US9617244B2, “Antibacterial quinoline derivatives” (JANSSEN PHARMACEUTICA NV, priority 2012, dated 2017).

The term melting point denotes the temperature, or range, at which the solid turns liquid. The term IC90 denotes the point of the concentration-response curve where the effect stands at 90%.

In brackets after ≈: the same amount, converted by molar mass.

`COc1nc2ccc(S(C)(=O)=O)cc2cc1C(c1cccc(Cl)c1)C1(O)CCNC(c2ccc(F)cc2C)C1` (stereo not drawn) [Compound 47] showed a melting point of 174 °C. In addition, in data set [1], the “IC90 MSM 607” value came out at 5.69 µg/mL (≈ 10 µM). For the same molecule, the “IC90 STA B29213” value in data set [2] was determined as 14.30 µg/mL (≈ 25.1 µM).
As for `COc1nc2ccc(F)cc2cc1C(c1ccc(Cl)cc1)C1(O)CCNC(Cc2ccccc2)C1` (stereo not drawn) [Compound 52], the melting point turned out to be 176 °C. In addition, the “IC90 MSM 607” value in data set [1] amounted to 0.62 µg/mL (≈ 1.26 µM). The “IC90 STA B29213” value in data set [2] is 1.23 µg/mL (≈ 2.51 µM).
As for `COc1nc2ccc(F)cc2cc1C(c1ccc(Cl)cc1)C1(O)CCNC(Cc2ccccc2)C1` (stereo not drawn) [Compound 53], the melting point was 102 °C. The “IC90 MSM 607” value in data set [1] amounted to 2.46 µg/mL (≈ 5.01 µM). Moreover, in data set [2], the “IC90 STA B29213” value stood at 1.55 µg/mL (≈ 3.16 µM).
`CS(=O)(=O)c1ccc2[nH]c(=O)c(C(c3ccc(Cl)cc3)C3(O)CCNC(Cc4ccc(F)cc4)C3)cc2c1` (stereo not drawn) [Compound 56] registered a melting point of 140 °C. For the same molecule, the “IC90 MSM 607” value in data set [1] is greater than 13.94 µg/mL. Moreover, the “IC90 STA B29213” value in data set [2] is greater than 13.94 µg/mL.
As for `COc1nc2ccc(Br)cc2cc1C(c1ccc(Cl)cc1)C1(O)CCNC(Cc2ccccn2)C1` (stereo not drawn) [Compound 60], the melting point was 161 °C. Besides, the “IC90 MSM 607” value in data set [1] is 1.39 µg/mL (≈ 2.51 µM). In addition, the IC90 in data set [2] is 2.77 µg/mL (≈ 5.01 µM).
`COc1nc2ccc(Br)cc2cc1C(c1ccccc1)C1(O)CCNC(c2ccc(F)cc2C)C1` (stereo not drawn) [Compound 61]: the melting point came out at 141 °C. The “IC90 MSM 607” value in data set [1] came out at 0.85 µg/mL (≈ 1.59 µM). For the same molecule, the “IC90 STA B29213” value in data set [2] came to 1.69 µg/mL (≈ 3.16 µM).
As for `CCCN(C)CC1CC(O)(C(c2ccc(Cl)cc2)c2cc3cc(Cl)ccc3nc2OC)CCN1` (stereo not drawn) [Compound 63], the melting point was 157 °C. Besides, in data set [1], the “IC90 MSM 607” value was 1.59 µg/mL (≈ 3.16 µM). For the same molecule, the “IC90 STA B29213” value in data set [2] was determined as 3.17 µg/mL (≈ 6.31 µM).
As for `COc1nc2ccc(S(C)(=O)=O)cc2cc1C(c1ccc(Cl)cc1)C1(O)CCNCC1Cc1cccc[n+]1[O-]` (stereo not drawn) [Compound 65], the melting point stood at 240 °C. The IC90 in data set [1] was greater than 14.3 µg/mL. Moreover, the IC90 in data set [2] was greater than 14.3 µg/mL.
The molecule `COc1nc2ccc(S(C)(=O)=O)cc2cc1C(c1ccc(Cl)cc1)C1(O)CCNCC1Cc1cccc[n+]1[O-]` (stereo not drawn) [Compound 66] had a melting point of 184 °C. In addition, the “IC90 MSM 607” value in data set [1] was greater than 14.27 µg/mL. Moreover, the “IC90 STA B29213” value in data set [2] is greater than 14.27 µg/mL.
As to `CCn1c(=O)c(C(c2ccc(Cl)cc2)C2(O)CCNC(Cc3ccccc3)C2)cc2cc(Br)ccc21` (stereo not drawn) [Compound 82], the melting point was found to be 230 °C. In addition, the “IC90 MSM 607” value in data set [1] worked out at 1.60 µg/mL (≈ 2.83 µM). The “IC90 STA B29213” value in data set [2] came out at 2.84 µg/mL (≈ 5.02 µM).
As to `CCn1c(=O)c(C(c2ccc(Cl)cc2)C2(O)CCNC(Cc3ccccc3)C2)cc2cc(Br)ccc21` (stereo not drawn) [Compound 83], the melting point turned out to be 219 °C. Further, the “IC90 MSM 607” value in data set [1] was found to be 3.57 µg/mL (≈ 6.31 µM). In addition, in data set [2], the “IC90 STA B29213” value is 7.12 µg/mL (≈ 12.6 µM).
As for `CN1CCC(O)(C(c2ccc(Cl)cc2)c2cc3cc(Br)ccc3[nH]c2=O)CC1Cc1ccccc1` (stereo not drawn) [Compound 84], the melting point is 238 °C. The IC90 in data set [1] stood at 5.52 µg/mL (≈ 10 µM). Further, in data set [2], the IC90 was determined as 6.95 µg/mL (≈ 12.6 µM).
For the molecule `COc1nc2ccc(Cl)cc2cc1C(c1ccc(Cl)cc1)C1(O)CCNC(Cc2ccccc2)C1` (stereo not drawn) [Compound 96], the melting point was found to be 114 °C. In addition, the IC90 in data set [1] is 1.01 µg/mL (≈ 1.99 µM). Moreover, the “IC90 STA B29213” value in data set [2] was determined as 1.60 µg/mL (≈ 3.15 µM).
As for `COc1nc2ccc(S(C)(=O)=O)cc2cc1C(c1ccc(Cl)cc1)C1(O)CCNC(Cc2ccccc2)C1` (stereo not drawn) [Compound 97], the melting point stood at 120 °C. Besides, in data set [1], the “IC90 MSM 607” value came to 13.84 µg/mL (≈ 25.1 µM). Besides, the “IC90 STA B29213” value in data set [2] is greater than 13.84 µg/mL.
Consider `COc1nc2ccc(Br)cc2cc1C(c1ccc(SC)cc1)C1(O)CCNC(Cc2ccccc2)C1` (stereo not drawn) [Compound 100], for which the melting point stood at 143 °C. Moreover, in data set [1], the “IC90 MSM 607” value stood at 7.09 µg/mL (≈ 12.6 µM). Also, in data set [2], the “IC90 STA B29213” value was found to be 7.09 µg/mL (≈ 12.6 µM).
For the molecule `COc1nc2ccc(Br)cc2cc1C(c1ccc(S(C)(=O)=O)cc1)C1(O)CCNC(Cc2ccccc2)C1` (stereo not drawn) [Compound 103], the melting point stood at 135 °C. In addition, in data set [1], the “IC90 MSM 607” value was 14.96 µg/mL (≈ 25.1 µM). Moreover, in data set [2], the “IC90 STA B29213” value worked out at 14.96 µg/mL (≈ 25.1 µM).
In turn, `COc1nc2ccc(Br)cc2cc1C(c1ccc(Cl)cc1)C1(O)CCNC(c2ccc(F)cc2C)C1` (stereo not drawn) [Compound 104] registered a melting point of 160 °C. In addition, the IC90 in data set [1] stood at 1.14 µg/mL (≈ 2 µM). Moreover, the IC90 in data set [2] was found to be 1.8 µg/mL (≈ 3.16 µM).
For `COc1nc2ccc(Br)cc2cc1C(c1ccc(Cl)cc1)C1(O)CCNC(c2ccc(F)cc2C)C1` (stereo not drawn) [Compound 105], the melting point was determined as 149 °C. Moreover, the “IC90 MSM 607” value in data set [1] was 0.90 µg/mL (≈ 1.58 µM). In data set [2], the “IC90 STA B29213” value amounted to 1.80 µg/mL (≈ 3.16 µM).
